From patent US20130136740A1, “METHODS OF TREATING CANCER” (priority 2011, published 2013)

Experiment: Serum phosphate in rats
Format: in vivo, Sprague Dawley rats
Settings: daily dosing 50 mg/kg/day oral gavage, at 24 hour or 1 week
Procedure: FGFR1-ECD.339-Fc binds to the mitogenic FGFs with 10 to 100-fold higher affinity than to FGF-23. […] The potential biological impact of this relatively weak FGFR1-ECD.339-Fc/FGF-23 binding was investigated in rats following four weekly doses of FGFR1-ECD.339-Fc at a dose range of 10-200 mg/kg/qwk.
In the first experiment, Sprague Dawley rats (Charles River Labs; N=5/group) were dosed with vehicle, 10, 50 or 200 mg/kg/qwk of FGFR1-ECD.339-Fc for four weekly doses and plasma concentrations of FGFR1-ECD.339-Fc were determined throughout the study by an ELISA based detection method.
In the second experiment, Sprague Dawley rats (Charles River Labs; N=5/group) were administered the FGFR kinase inhibitor PD173074 (Chemdea, Ridgewood, N.J.; 50 mg/kg/day) or vehicle control by oral gavage for 7 days; or were administered FGFR1-ECD.339-Fc (200 mg/kg) or appropriate vehicle weekly by intravenous administration. Blood samples were collected at the time points indicated and serum phosphate was determined at 24 and 168 hours post-initiation of dosing (Idexx laboratories, Westbrook, Mass.).

CCN(CC)CCCCNc1ncc2cc(-c3cc(OC)cc(OC)c3)c(NC(=O)NC(C)(C)C)nc2n1 [PD173043, reference compound]
plasma phosphate levels: significantly elevated
